Structures can show the parent of a compound that is named as a salt.
Tested on: patients with seasonal allergic rhinitis (SAR)
Assay: MP 428 study: adverse events, Safety Population
Type: in vivo, human
Description: A two-week, randomized, double-blind study, which evaluated the effects of the co-administration of ASTELIN® (azelastine hydrochloride (HCl)) and FLONASE® (fluticasone propionate) compared to either product alone in patients with seasonal allergic rhinitis (SAR) was conducted during the 2006 Texas mountain cedar season. After a 5-day placebo lead-in period, 151 patients with moderate-to-severe allergic rhinitis symptoms were randomized to either: (1) (49 total patients) ASTELIN® (azelastine hydrochloride (HCl)) plus placebo saline nasal spray 2 sprays per nostril, 15 minutes apart, twice daily (AM & PM); (2) (50 total patients) FLONASE® (fluticasone propionate) plus placebo saline nasal spray, 2 sprays per nostril, 15 minutes apart, once daily (AM) and two sessions of placebo saline nasal spray, 2 sprays per nostril, 15 minutes apart (PM); or (3) (52 total patients) the co-administration of ASTELIN® (azelastine hydrochloride (HCl)) 2 sprays per nostril plus FLONASE® (fluticasone propionate) 2 sprays per nostril (AM), 15 minutes apart, and ASTELIN® (azelastine hydrochloride (HCl)) 2 sprays per nostril plus placebo saline nasal spray, 15 minutes apart, (PM) for a 2-week double-blind treatment period.
The most common adverse events (AEs) were bitter taste (8.2% in ASTELIN® (azelastine hydrochloride (HCl)) group, 2.0% in FLONASE® (fluticasone propionate) group, 13.5% in co-administration group) and headache (4.1% in ASTELIN® (azelastine hydrochloride (HCl)) group, 4.0% in FLONASE® (fluticasone propionate) group, 5.8% in co-administration group). No other AE was reported by more than one patient in any treatment group. There were no discontinuations due to AEs.

[1] = Possibly related to study drug, Safety Population
[2] = Probably related to study drug, Safety Population
[3] = Total (possibly or probably related), Safety Population

Compound: CN1CCCC(n2nc(Cc3ccc(Cl)cc3)c3ccccc3c2=O)CC1 (racemic) [Azelastine, (±)-1-(2H)-phthalazinone, 4-[(4-chlorophenyl)methyl]-2-(hexahydro-1-methyl-1H-azepin-4-yl)-, mono-hydrochloride]
- Primary Reason for Discontinuation From Study: Adverse Event (All Randomized Patients): 0 (0.0) N (%)
- Number (%) Patients With Treatment-Related AEs by Maximum Severity (Mild): 1 (2.0) Number (%)
- Number (%) Patients With Treatment-Related AEs by Maximum Severity (Moderate): 0 (0.0) Number (%)
- Treatment-Related Adverse Events: Any Adverse Event [1]: 1 (2.0) No. of Patients (%)
- Treatment-Related Adverse Events: DRY MOUTH [1]: 0 (0.0) No. of Patients (%)
- Treatment-Related Adverse Events: DYSGEUSIA [1]: 1 (2.0) No. of Patients (%)
- Treatment-Related Adverse Events: EPISTAXIS [1]: 0 (0.0) No. of Patients (%)
- Treatment-Related Adverse Events: GASTROINTESTINAL DISORDERS, Any Preferred Term [1]: 1 (2.0) No. of Patients (%)
- Treatment-Related Adverse Events: HEADACHE [1]: 0 (0.0) No. of Patients (%)
- Treatment-Related Adverse Events: NASAL DISCOMFORT [1]: 0 (0.0) No. of Patients (%)
- Treatment-Related Adverse Events: NERVOUS SYSTEM DISORDERS, Any Preferred Term [1]: 0 (0.0) No. of Patients (%)
- Treatment-Related Adverse Events: RESPIRATORY, THORACIC AND MEDIASTINAL DISORDERS, Any Preferred Term [1]: 0 (0.0) No. of Patients (%)
- Treatment-Related Adverse Events: STOMACH DISCOMFORT [1]: 0 (0.0) No. of Patients (%)
- Treatment-Related Adverse Events: Any Adverse Event [2]: 3 (6.1) No. of Patients (%)
- Treatment-Related Adverse Events: DRY MOUTH [2]: 0 (0.0) No. of Patients (%)
- Treatment-Related Adverse Events: DYSGEUSIA [2]: 3 (6.1) No. of Patients (%)
- Treatment-Related Adverse Events: EPISTAXIS [2]: 0 (0.0) No. of Patients (%)
- Treatment-Related Adverse Events: GASTROINTESTINAL DISORDERS, Any Preferred Term [2]: 3 (6.1) No. of Patients (%)
- Treatment-Related Adverse Events: HEADACHE [2]: 0 (0.0) No. of Patients (%)
- Treatment-Related Adverse Events: NASAL DISCOMFORT [2]: 0 (0.0) No. of Patients (%)
- Treatment-Related Adverse Events: NERVOUS SYSTEM DISORDERS, Any Preferred Term [2]: 0 (0.0) No. of Patients (%)
- Treatment-Related Adverse Events: RESPIRATORY, THORACIC AND MEDIASTINAL DISORDERS, Any Preferred Term [2]: 0 (0.0) No. of Patients (%)
- Treatment-Related Adverse Events: STOMACH DISCOMFORT [2]: 0 (0.0) No. of Patients (%)
- Number (%) Patients With Any AEs: All Treatment-Related AEs (Safety Population): 4 (8.2) Number (%)
- Number (%) of Deaths (Safety Population): 0 (0.0) Number (%)
- Number (%) of Patients With Serious AEs (Safety Population): 0 (0.0) Number (%)
- Number of Adverse Events Reported: All Treatment-Emergent AEs (Safety Population): 9
- Number of Adverse Events Reported: All Treatment-Related AEs (Safety Population): 4
- Number (%) Patients With Treatment-Related AEs by Maximum Severity (Severe): 3 (6.1) Number (%)
- Treatment-Emergent AE: Any Adverse Event (Total): 8 (16.3) No. of Patients (%)
- Treatment-Emergent AE: DRY MOUTH (Total): 0 (0.0) No. of Patients (%)
- Treatment-Emergent AE: DYSGEUSIA (Total): 4 (8.2) No. of Patients (%)
- Treatment-Emergent AE: EAR AND LABYRINTH DISORDERS, Any Preferred Term (Total): 1 (2.0) No. of Patients (%)
- Treatment-Emergent AE: EAR PAIN (Total): 1 (2.0) No. of Patients (%)
- Treatment-Emergent AE: EPISTAXIS (Total): 0 (0.0) No. of Patients (%)
- Treatment-Emergent AE: GASTROINTESTINAL DISORDERS, Any Preferred Term (Total): 4 (8.2) No. of Patients (%)
- Treatment-Emergent AE: HEADACHE (Total): 2 (4.1) No. of Patients (%)
- Treatment-Emergent AE: MUSCULOSKELETAL AND CONNECTIVE TISSUE DISORDERS, Any Preferred Term (Total): 1 (2.0) No. of Patients (%)
- Treatment-Emergent AE: MYALGIA (Total): 0 (0.0) No. of Patients (%)
- Treatment-Emergent AE: NASAL DISCOMFORT (Total): 0 (0.0) No. of Patients (%)
- Treatment-Emergent AE: NECK PAIN (Total): 1 (2.0) No. of Patients (%)
- Treatment-Emergent AE: NERVOUS SYSTEM DISORDERS, Any Preferred Term (Total): 2 (4.1) No. of Patients (%)
- Treatment-Emergent AE: PHARYNGOLARYNGEAL PAIN (Total): 1 (2.0) No. of Patients (%)
- Treatment-Emergent AE: RESPIRATORY, THORACIC AND MEDIASTINAL DISORDERS, Any Preferred Term (Total): 1 (2.0) No. of Patients (%)
- Treatment-Emergent AE: STOMACH DISCOMFORT (Total): 0 (0.0) No. of Patients (%)
- Treatment-Related Adverse Events: Any Adverse Event [3]: 4 (8.2) No. of Patients (%)
- Treatment-Related Adverse Events: DRY MOUTH [3]: 0 (0.0) No. of Patients (%)
- Treatment-Related Adverse Events: DYSGEUSIA [3]: 4 (8.2) No. of Patients (%)
- Treatment-Related Adverse Events: EPISTAXIS [3]: 0 (0.0) No. of Patients (%)
- Treatment-Related Adverse Events: GASTROINTESTINAL DISORDERS, Any Preferred Term [3]: 4 (8.2) No. of Patients (%)
- Treatment-Related Adverse Events: HEADACHE [3]: 0 (0.0) No. of Patients (%)
- Treatment-Related Adverse Events: NASAL DISCOMFORT [3]: 0 (0.0) No. of Patients (%)
- Treatment-Related Adverse Events: NERVOUS SYSTEM DISORDERS, Any Preferred Term [3]: 0 (0.0) No. of Patients (%)
- Treatment-Related Adverse Events: RESPIRATORY, THORACIC AND MEDIASTINAL DISORDERS, Any Preferred Term [3]: 0 (0.0) No. of Patients (%)
- Treatment-Related Adverse Events: STOMACH DISCOMFORT [3]: 0 (0.0) No. of Patients (%)
- Treatment-Emergent AE: DRY MOUTH (max severity Mild): 0 (0.0) No. of Patients (%)
- Treatment-Emergent AE: DYSGEUSIA (max severity Mild): 1 (2.0) No. of Patients (%)
- Treatment-Emergent AE: EAR AND LABYRINTH DISORDERS, Any Preferred Term (max severity Mild): 0 (0.0) No. of Patients (%)
- Treatment-Emergent AE: EAR PAIN (max severity Mild): 0 (0.0) No. of Patients (%)
- Treatment-Emergent AE: EPISTAXIS (max severity Mild): 0 (0.0) No. of Patients (%)
- Treatment-Emergent AE: GASTROINTESTINAL DISORDERS, Any Preferred Term (max severity Mild): 1 (2.0) No. of Patients (%)
- Treatment-Emergent AE: HEADACHE (max severity Mild): 1 (2.0) No. of Patients (%)
- Treatment-Emergent AE: MUSCULOSKELETAL AND CONNECTIVE TISSUE DISORDERS, Any Preferred Term (max severity Mild): 1 (2.0) No. of Patients (%)
- Treatment-Emergent AE: MYALGIA (max severity Mild): 0 (0.0) No. of Patients (%)
